Values joined by “and” are separate entries in the source; they are usually repeats but may differ in a detail not shown here. Equal values may be shown once.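 Exposure lasted 48 hours, with cells grown in 96-well plates and compounds tested at five concentrations. At the GI50, growth is halved. Definition used: TGI = concentration required for complete inhibition of growth.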
Key:
Assay in all cases: NCI tumour cell line growth inhibition, 48 h
[1] = system: DLD-1 colon
[2] = system: DMS 114 small cell lung
[3] = system: HOP-18 NSCLC
[4] = system: KM20L2 colon
[5] = system: M19-MEL melanoma
[6] = system: SNB-78 CNS
[7] = system: MDA-N
[8] = system: P388 leukemia
[9] = system: P388/ADR leukemia
[10] = system: SN12K1 renal
[11] = system: XF 498 CNS
[12] = system: RXF-631 renal

Structure (SMILES)	TGI [1]	TGI [2]	TGI [3]	TGI [4]	TGI [5]	TGI [6]	TGI [7]	TGI [11]	other results
O=C1C2C3CC4C5C3C1C5C1(SCCS1)C42 (centres undefined)	> 100 µM	> 100 µM	> 100 µM	> 100 µM	> 100 µM	> 100 µM	–	–	–
O=c1c2ccccc2nc(-c2cccc([N+](=O)[O-])c2)n1O	–	–	–	–	–	–	> 100 µM	–	–
O=P1(NCCCl)OCCCN1CCCl (centres undefined)	431 µM	438 µM	124 µM	434 µM	440 µM	451 µM	> 500 µM	436 µM	TGI [8]: 293 µM; TGI [9]: 315 µM; TGI [10]: 430 µM
CN(C)CCC(N)(P(=O)([O-])[O-])P(=O)([O-])[O-].N.N.[Pt+2]	> 100 µM	–	> 100 µM	> 100 µM	–	> 100 µM	–	–	GI50 [1]: > 100 µM; GI50 [3]: > 100 µM; GI50 [4]: > 100 µM; GI50 [6]: > 100 µM
CC(=O)OC(C)(C)C1CC[C@]2(C)/C=C/C(C)C[C@@H](O)/C=C(\C)CC(O)C12 (some centres undefined)	> 100 µM	> 100 µM	> 100 µM	> 100 µM	> 100 µM	> 100 µM	–	–	TGI [12]: > 100 µM
C/C(CN1C(=O)c2ccccc2C1=O)=N\NS(=O)(=O)c1ccc2ccccc2c1	> 100 µM	> 100 µM	> 100 µM	> 100 µM	> 100 µM	> 100 µM	–	–	–
CC[C@@]1(OP(=O)(O)O)C(=O)OCc2c1cc1n(c2=O)Cc2cc3ccccc3nc2-1	–	0.509 µM and 3.37 µM	44.4 µM	–	6.47 µM and 2.05 µM	> 100 µM	4.59 µM	2.21 µM and 9.34 µM	GI50 [1]: 2.56 µM; GI50 [2]: 0.0678 µM; GI50 [3]: 0.408 µM; GI50 [4]: 0.458 µM; GI50 [5]: 0.25 µM; GI50 [6]: 3.81 µM; GI50 [11]: 1.88 µM
CS(=O)(=O)OCCN(CCOS(C)(=O)=O)c1ccc(C=Nc2ccc(-c3csc(COc4ccccc4)n3)cc2)cc1	29.3 µM	23.4 µM	19.2 µM	14.7 µM	36 µM	66.4 µM	31 µM	6.85 µM	–
NC1=C(O)c2cccc3cccc(c23)C1=O	> 100 µM	> 100 µM	> 100 µM	> 100 µM	> 100 µM	> 100 µM	–	–	TGI [12]: > 100 µM
O=C(O)/C=C\C(=O)Nc1ccc2c(c1)-c1ccccc1C2	–	–	–	–	–	–	> 100 µM	–	–
Cc1cc(N(CCC#N)CCC#N)ccc1/C=C(\NC(=O)/C=C/c1ccccc1)C(=O)N=[N+]=[N-]	> 100 µM	> 100 µM	–	> 100 µM	> 100 µM	> 100 µM	–	69.9 µM	–
N#CC(C(=O)CCCC(=O)Nc1ccccc1[N+](=O)[O-])c1c(Cl)cccc1Cl (centres undefined)	> 100 µM	> 100 µM	> 100 µM	> 100 µM	> 100 µM	> 100 µM	–	> 100 µM	TGI [12]: > 100 µM
COc1ccc2c(c1)[C@@H](NC(C)=O)CCc1cc(OC)c(OC)c(OC)c1-2	> 100 µM	0.366 µM	> 100 µM	–	> 100 µM	> 100 µM	< 0.0204 µM	16.2 µM	–
NC(N)NCCCc1cn2c(n1)C1CCCN1C(=O)C2Cc1ccccc1 (centres undefined)	> 100 µM	> 100 µM	–	> 100 µM	> 100 µM	> 100 µM	–	> 100 µM	TGI [12]: > 100 µM
O=C(O)/C=C/c1ccc(O)c(O)c1	> 100 µM	> 100 µM	> 100 µM	> 100 µM	> 100 µM	> 100 µM	–	–	TGI [12]: > 100 µM
CC1CCCCCC(=O)c2c(O)cc(O)cc2CC(=O)O1 (centres undefined)	–	–	–	–	–	–	> 100 µM	–	–
C=CC1(C)CCC2C(=CCC3C2(C)CC(O)C(O)C3(C)COC2OC(CO)C(O)C(O)C2O)C1 (centres undefined)	–	–	–	–	–	–	> 100 µM	–	–

Structure (SMILES)	TGI [1]	TGI [2]	TGI [3]	TGI [4]	TGI [5]	TGI [6]	TGI [7]	TGI [11]	other results
O=S1OC(c2ccccc2)(c2ccccc2)C(c2ccccc2)(c2ccccc2)O1	> 100 µM	> 100 µM	> 100 µM	> 100 µM	> 100 µM	> 100 µM	–	> 100 µM	TGI [12]: > 100 µM
COc1ccc(C2COc3c(ccc(OC)c3OC)C2=O)cc1OC (centres undefined)	> 100 µM	> 100 µM	> 100 µM	> 100 µM	> 100 µM	> 100 µM	–	> 100 µM	–
COc1nc(NC2OC(COC(C)=O)C(OC(C)=O)C(OC(C)=O)C2OC(C)=O)c(N=CC=Nc2c(NC3OC(COC(C)=O)C(OC(C)=O)C(OC(C)=O)C3OC(C)=O)nc(OC)[nH]c2=O)c(=O)[nH]1 (centres undefined)	> 100 µM	> 100 µM	> 100 µM	> 100 µM	> 100 µM	–	–	–	–
CC(=O)N1C/C(=C\c2ccccc2)C(=O)/C(=C/c2ccccc2)C1	25.8 µM	–	32.9 µM	39.5 µM	10.7 µM	53.4 µM	–	49.3 µM	–
CC(=O)OCC1C(=O)OCC1C(=O)N1Cc2cc3ccccc3nc2C1 (centres undefined)	3.37 µM	29.8 µM	10.2 µM	11 µM	21.2 µM	–	13.1 µM	4.51 µM	–
C[N+]1([O-])C2CCC1CC(OC(=O)C(CO)c1ccccc1)C2 (centres undefined)	–	–	–	–	–	–	> 100 µM	–	–
O=C(CCc1n[nH]c(=S)o1)Nc1cc(Cl)ccc1Cl	> 100 µM	–	> 100 µM	> 100 µM	> 100 µM	> 100 µM	–	–	–
CCN(CC)CC(=O)NC1c2ccccc2Oc2ccccc21	> 100 µM	> 100 µM	–	> 100 µM	> 100 µM	> 100 µM	–	> 100 µM	–
Cc1ccc(N)c(S)c1	–	–	–	–	–	–	28.2 µM	–	–
Cn1cc(C2NC(=O)c3ccccc3N2)c2ccccc21 (centres undefined)	–	–	–	–	–	–	0.591 µM	–	–
O=C(/C=C/c1ccccc1)NC1C=Nc2ccc([N+](=O)[O-])cc2NC1=O (centres undefined)	> 100 µM	> 100 µM	–	> 100 µM	> 100 µM	> 100 µM	–	> 100 µM	–
COC(=O)C(=O)C(C#N)c1nc2ccccc2s1 (centres undefined)	> 100 µM	> 100 µM	–	> 100 µM	> 100 µM	> 100 µM	–	> 100 µM	TGI [12]: > 100 µM
C=C(CO)C(=O)OC1CC(=C)C2CC(O)C(C)C2C2OC(=O)C(=C)C12 (centres undefined)	–	–	–	–	–	–	38 µM	–	–
Cc1ccc(S(=O)c2ccccc2[N+](=O)[O-])cc1 (centres undefined)	> 100 µM	> 100 µM	–	–	> 100 µM	> 100 µM	–	–	TGI [12]: > 100 µM
CN(C)CC1CC/C(=C\c2ccc(Cl)c(Cl)c2)C1=O (centres undefined)	50.1 µM	> 72.7 µM	> 100 µM	> 50.2 µM	> 51.2 µM	> 78.8 µM	–	> 65.4 µM	–
CC(C)(CN1CCCCC1)C(=O)/C=C/c1ccccc1	54.1 µM	42 µM	–	28.1 µM	52.3 µM	80.9 µM	–	29.9 µM	TGI [12]: 59 µM
O=C([CH-]C(=O)c1ccccc1)c1ccccc1.O=C([CH-]C(=O)c1ccccc1)c1ccccc1.O=C([CH-]C(=O)c1ccccc1)c1ccccc1.[Ga+3]	–	–	> 100 µM	> 100 µM	–	–	–	–	GI50 [3]: 39.7 µM; GI50 [4]: 59.2 µM
